# Values quoted from earlier work, collected in publication PMC5131915, “Platinum(II) Iodido Complexes of 7-Azaindoles with Significant Antiproliferative Effects: An Old Story Revisited with Unexpected Outcomes” (PLoS ONE, 2016).
# Assays:
# Details in all cases: cited from earlier work
# HeLa cells = tested on: HeLa cells; parameters: method as in PMID 22225466
# [1] = tested on: A2780, T-47D human breast carcinoma and WiDr human colon carcinoma cell lines; parameters: method as in PMID 24900222
# [2] = tested on: HT29 colon carcinoma cells
# [3] = tested on: HCT116 colon carcinoma cells
structure (smiles),measurement,setting,value
C[NH+](C)[Pt-2]([I])([I])[NH+](C)C [trans-[PtI2(L1)2]],factor by which activity of cisplatin is exceeded,HeLa cells,~6
CC(C)N.CC(C)N.[I][Pt][I] [cis-[PtI2(ipam)2]],times more potent than cisplatin,[1],≤ 11 times
O=C1[O][Pt]2([NH][C@@H]3CCCC[C@H]3[NH]2)[O]C1=O [oxaliplatin],IC50,[2],700 nM
same,IC50,[3],300 nM
